What was measured:
A3 adenosine receptors [1] = biological target: T1, A3 adenosine receptors (Homo sapiens, UniProt P0DMS8); assay: [3H]MRE 3008F20 saturation binding to membranes of peripheral blood lymphocytes and neutrophils; set-up: endogenous in cells; host or cells: neutrophils and lymphocytes from peripheral venous blood of colorectal cancer patients and healthy volunteers; details: N=3
T1 sequence (P0DMS8 1-318): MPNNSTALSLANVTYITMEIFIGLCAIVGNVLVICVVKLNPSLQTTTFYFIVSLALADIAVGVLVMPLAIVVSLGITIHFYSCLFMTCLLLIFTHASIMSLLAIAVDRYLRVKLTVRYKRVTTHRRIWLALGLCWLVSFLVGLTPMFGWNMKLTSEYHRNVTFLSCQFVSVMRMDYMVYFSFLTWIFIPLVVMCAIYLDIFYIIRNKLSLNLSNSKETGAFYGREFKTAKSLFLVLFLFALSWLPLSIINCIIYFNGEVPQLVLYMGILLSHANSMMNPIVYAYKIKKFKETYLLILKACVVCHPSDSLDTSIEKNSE
Procedure: (§1) Non-specific binding was determined in the presence of 1 μM MRE 3008F20. Bound and free radioactivity were separated, after an incubation time of 120 min at 4° C., by filtering the assay mixture using a Brandel cell harvester. The protein concentration was determined according to a Bio Rad method (26). Binding to A1 and A2A adenosine receptors was performed using [^3H]1,3-dipropyl-8-cyclopentyl-xanthine ([^3H]DPCPX) and [^3H]4-(2-[7-amino-2-(2-furyl)-[1,2,4]triazolo-[2,32][1,3,6]triazinyl-amino]ethyl)-phenol ([^3H]ZM 241385), respectively, as previously described (16, 24).
(§2) Data and statistical analysis. A weighted nonlinear least squares curve fitting program, LIGAND was used for computer analysis of the data from saturation experiments (28). Significant differences between control and patients with colorectal cancer were assessed using Student's t-test or analysis of variance (ANOVA) and the Dunnett's test when required. P<0.05 was considered significant. All data are reported as means±SEM.

A3 adenosine receptors [2] = biological target: T1, A3 adenosine receptors; assay: [3H]MRE 3008F20 saturation binding to colonic membranes; set-up: Colon cancer tissues and related mucosa were homogenized in PBS buffer with a Polytron (Kinematica) and centrifuged; from tissue; host or cells: surgical specimens of human colorectal carcinoma, adenoma and adjacent/remote normal colonic mucosa
Procedure: PREPARATION OF COLONIC MEMBRANE SUSPENSIONS. Colon cancer tissues and related mucosa were homogenized in PBS buffer with a Polytron (Kinematica) and centrifuged for 15 min at 48,000 g. The membrane pellet was resuspended in 50 mM Tris/HCl buffer pH 7.4 (50 mM Tris/HCl, 10 mM MgCl2, 1 mM EDTA) and incubated with 3 IU/ml of adenosine deaminase for 30 min at 37° C. This suspension was used for binding experiments.
as §1, §2

Structure (SMILES): CCCn1cc2c(nc(NC(=O)Nc3ccc(OC)cc3)n3nc(-c4ccco4)nc23)n1 [[^3H]MRE 3008F20, 5-N-(4-methoxyphenyl-carbamoyl)amino-8-propyl-2(2furyl)-pyrazolo-[4,3 e]-1,2,4-triazolo [1,5-c]pyrimidine]
- Bmax (A3 adenosine receptors [1]; lymphocytes of patients with small adenomas): 106±15 fmol/mg of protein
- Bmax (A3 adenosine receptors [1]; neutrophils of patients with small adenomas): 547±77 fmol/mg of protein
- Bmax (A3 adenosine receptors [2]; adjacent normal (AN) mucosa, 2 cm from tumor): 295±20 fmol/mg of protein
- Bmax (A3 adenosine receptors [2]; colonic membranes from 14 patients operated for non-neoplastic large bowel disease): 163±10 fmol/mg of protein
- Bmax (A3 adenosine receptors [2]; large adenomas with high-grade dysplasia, N=4): 302±15 fmol/mg of protein
- Bmax (A3 adenosine receptors [2]; remote normal (RN) mucosa, 10 cm from tumor): 196±10 fmol/mg of protein
- Bmax (A3 adenosine receptors [2]; small adenomas with low-grade dysplasia, N=4): 155±24 fmol/mg of protein
- Bmax (A3 adenosine receptors [2]; tumor tissues, 73 primary colorectal carcinomas, mean±SEM): 584±35 fmol/mg of protein
